Data from BindingDB's records for doi:10.1016/S0893-133X(98)00099-2 (University of North Carolina, 1999).
Values joined by “and” are separate entries in the source; they are usually repeats but may differ in a detail not shown here. Equal entries are not always repeated.

Assays:
D(3) dopamine receptor = D(3) dopamine receptor (Rattus norvegicus, UniProt P19020)
D(4) dopamine receptor = molecular target: T1, D(4) dopamine receptor (Rattus norvegicus, UniProt P30729)
T1 sequence (P30729 whole entry): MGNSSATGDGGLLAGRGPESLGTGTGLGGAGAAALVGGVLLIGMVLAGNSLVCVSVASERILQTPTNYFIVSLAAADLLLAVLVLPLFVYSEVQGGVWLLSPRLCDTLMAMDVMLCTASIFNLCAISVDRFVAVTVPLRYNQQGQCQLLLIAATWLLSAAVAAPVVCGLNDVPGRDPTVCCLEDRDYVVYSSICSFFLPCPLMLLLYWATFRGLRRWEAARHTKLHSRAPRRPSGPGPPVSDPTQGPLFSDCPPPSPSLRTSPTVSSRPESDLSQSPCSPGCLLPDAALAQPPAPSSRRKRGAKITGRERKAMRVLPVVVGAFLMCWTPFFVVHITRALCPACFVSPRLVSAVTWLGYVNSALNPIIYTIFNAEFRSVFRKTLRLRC

[1] = molecular target: 5-hydroxytryptamine receptor 6 (Rattus norvegicus, UniProt P31388)
Chain of 5-hydroxytryptamine receptor 6 (P31388 whole entry): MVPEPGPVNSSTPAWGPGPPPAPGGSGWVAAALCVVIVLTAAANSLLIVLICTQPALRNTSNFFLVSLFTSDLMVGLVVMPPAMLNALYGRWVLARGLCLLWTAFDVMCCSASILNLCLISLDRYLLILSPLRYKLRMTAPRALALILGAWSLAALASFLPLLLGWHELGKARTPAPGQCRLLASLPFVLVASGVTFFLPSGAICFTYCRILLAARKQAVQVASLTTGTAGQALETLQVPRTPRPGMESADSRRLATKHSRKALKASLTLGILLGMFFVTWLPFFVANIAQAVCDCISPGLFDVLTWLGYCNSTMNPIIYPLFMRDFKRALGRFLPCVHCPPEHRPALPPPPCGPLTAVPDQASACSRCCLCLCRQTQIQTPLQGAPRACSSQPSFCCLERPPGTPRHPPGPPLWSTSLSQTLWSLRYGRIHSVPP

[2] = molecular target: 5-hydroxytryptamine receptor 7 (Rattus norvegicus, UniProt P32305)
Chain of 5-hydroxytryptamine receptor 7 (P32305 whole entry): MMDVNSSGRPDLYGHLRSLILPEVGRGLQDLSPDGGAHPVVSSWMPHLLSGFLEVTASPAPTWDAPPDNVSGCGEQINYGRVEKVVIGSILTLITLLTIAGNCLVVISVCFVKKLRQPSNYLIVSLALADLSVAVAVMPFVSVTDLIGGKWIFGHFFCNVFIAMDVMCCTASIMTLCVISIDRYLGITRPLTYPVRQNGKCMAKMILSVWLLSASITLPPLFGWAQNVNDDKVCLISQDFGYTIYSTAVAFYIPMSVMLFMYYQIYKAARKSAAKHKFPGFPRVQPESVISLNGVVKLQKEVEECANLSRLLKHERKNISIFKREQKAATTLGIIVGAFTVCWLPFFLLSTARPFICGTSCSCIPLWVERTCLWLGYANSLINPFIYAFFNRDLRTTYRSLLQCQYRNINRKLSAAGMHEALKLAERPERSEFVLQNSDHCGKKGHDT

D(1A) dopamine receptor = D(1A) dopamine receptor (Rattus norvegicus, UniProt P18901)
Chain of D(1A) dopamine receptor (P18901 whole entry): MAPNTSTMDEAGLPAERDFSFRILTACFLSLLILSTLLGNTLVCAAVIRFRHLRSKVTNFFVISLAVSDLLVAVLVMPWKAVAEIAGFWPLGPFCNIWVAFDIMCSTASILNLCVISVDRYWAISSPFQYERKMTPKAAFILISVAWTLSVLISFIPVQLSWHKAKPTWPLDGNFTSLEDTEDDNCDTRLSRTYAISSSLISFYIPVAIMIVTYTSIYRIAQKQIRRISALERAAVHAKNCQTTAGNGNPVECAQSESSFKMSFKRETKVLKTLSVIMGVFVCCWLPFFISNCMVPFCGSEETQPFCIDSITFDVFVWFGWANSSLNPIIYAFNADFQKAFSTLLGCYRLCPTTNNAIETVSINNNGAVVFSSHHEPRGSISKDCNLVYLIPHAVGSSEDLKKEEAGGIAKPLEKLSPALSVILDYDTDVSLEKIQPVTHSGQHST

D(1B) dopamine receptor = D(1B) dopamine receptor (Rattus norvegicus, UniProt P25115)
Chain of D(1B) dopamine receptor (P25115 whole entry): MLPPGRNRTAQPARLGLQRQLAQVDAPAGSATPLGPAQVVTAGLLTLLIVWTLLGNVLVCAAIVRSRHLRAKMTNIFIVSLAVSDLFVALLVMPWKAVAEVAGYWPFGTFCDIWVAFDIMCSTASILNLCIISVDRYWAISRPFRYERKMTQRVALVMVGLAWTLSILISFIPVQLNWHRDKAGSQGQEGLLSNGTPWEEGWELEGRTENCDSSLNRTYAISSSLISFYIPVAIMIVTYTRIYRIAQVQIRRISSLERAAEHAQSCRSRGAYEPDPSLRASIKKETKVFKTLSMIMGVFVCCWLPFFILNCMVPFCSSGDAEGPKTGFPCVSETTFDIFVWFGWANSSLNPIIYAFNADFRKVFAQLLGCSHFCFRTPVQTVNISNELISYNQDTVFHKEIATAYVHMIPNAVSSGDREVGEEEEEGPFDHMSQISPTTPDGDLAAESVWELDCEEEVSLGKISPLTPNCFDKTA

Chain of D(3) dopamine receptor (P19020 whole entry): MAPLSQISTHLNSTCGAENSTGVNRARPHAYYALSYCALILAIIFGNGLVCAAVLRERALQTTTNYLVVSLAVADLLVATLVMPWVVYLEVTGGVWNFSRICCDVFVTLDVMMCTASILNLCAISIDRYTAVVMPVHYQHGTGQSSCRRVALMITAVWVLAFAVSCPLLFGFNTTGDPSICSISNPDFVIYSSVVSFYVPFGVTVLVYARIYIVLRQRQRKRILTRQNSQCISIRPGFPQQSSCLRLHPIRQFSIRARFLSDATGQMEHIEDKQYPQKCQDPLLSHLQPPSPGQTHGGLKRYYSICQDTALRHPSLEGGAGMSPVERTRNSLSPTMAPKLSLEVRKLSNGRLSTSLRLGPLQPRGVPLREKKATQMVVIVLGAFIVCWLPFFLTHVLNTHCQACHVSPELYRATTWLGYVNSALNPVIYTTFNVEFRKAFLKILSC

| Ki (D(3) dopamine receptor) | Ki (D(4) dopamine receptor) | Structure (SMILES) | Ki [1] | Ki [2] | Ki (D(1A) dopamine receptor) | Ki (D(1B) dopamine receptor) |
| --- | --- | --- | --- | --- | --- | --- |
| 0.00036 µM and 0.00014 µM | 0.064 µM | CCc1cc(Cl)c(OC)c(C(=O)NC[C@@H]2CCCN2CC)c1O [3-Chloro-5-ethyl-N-((S)-1-ethyl-pyrrolidin-2-ylmethyl)-6-hydroxy-2-methoxy-benzamide] | – | – | – | – |
| – | – | O=C1CCc2ccc(OCCCCN3CCN(c4cccc(Cl)c4Cl)CC3)cc2N1 [7-{4-[4-(2,3-dichlorophenyl)piperazin-1-yl]butoxy}-3,4-dihydroquinolin-2(1H)-one] | 0.161 µM | – | – | – |
| 0.018 µM and 0.0817 µM | 0.28 µM | Cc1cccc(N2CCN(CCCOc3ccc4ccc(=O)[nH]c4c3)CC2)c1C [NSC_163839] | 0.68 µM | 0.022 µM | > 10 µM | > 10 µM |

| Structure (SMILES) | Ki (D(3) dopamine receptor) | Ki (D(4) dopamine receptor) | Ki [1] | Ki [2] | Ki (D(1A) dopamine receptor) | Ki (D(1B) dopamine receptor) |
| --- | --- | --- | --- | --- | --- | --- |
| Cc1c(O)ccc(N2CCN(CCCCOc3ccc4c(c3)NC(=O)CC4)CC2)c1C [7-{4-[4-(4-hydroxy-2,3-dimethylphenyl)piperazin-1-yl]butoxy}-1,2,3,4-tetrahydroquinolin-2-one] | 0.0045 µM and 0.00163 µM | 0.12 µM | – | 0.22 µM | 0.46 µM | > 10 µM |
